According to patent US8003369B2, “Bacteriolytic agent” (priority 2005, dated 2011):

test system: Escherichia coli (E-coli) cell; assay: Bacteriolytic power (number of bacterial cells after 3 days vs blank); type: cell-based; conditions: 50 μl of agent diluted to 50% as surfactant in 0.5 ml E. coli cell solution, 20° C.
Experimental: Into a 2 ml-screw tube were added 0.5 ml of a solution of an Escherichia coli (E-coli) cell and 50 μl of a bacteriolytic agent aqueous diluted solution which had been diluted so as to be a concentration of 50% as a surfactant with a micropipette, and the mixture was mixed well. The mixture was stored by allowing to stand at 20° C. for 3 days, which was used as a sample, and the number of bacterium cells was measured with a super deep profile measurement microscope (manufactured by KEYENCE CORPORATION, VK-8500). Bacteriolytic power was calculated by a following equation.
As a blank, 50 μl of ion-exchanged water was used in place of a bacteriolytic agent aqueous diluted solution. Bacteriolytic power (%)=[1−(the number of bacterial cells in sample after 3 days/the number of bacterial cells of blank)]×100 Determination Criteria: […]

| Molecule | Bacteriolytic power (score) |
| --- | --- |
| CC(=O)[O-].CCCCCCCCCC[N+](C)(C)CCCCCCCCCC [Example 4, acetate salt of didecyldimethylammonium] | 5 (Bacteriolytic power ≧ 80%) |
| CCCCCCCCCC[N+](C)(C)CCCCCCCCCC.[Cl-] [compound 3, didecyldimethylammonium chloride, reference compound] | 4 (60% ≦ Bacteriolytic power < 80%) |
| adipate salt of didecyldimethylammonium [Example 3] | 5 (Bacteriolytic power ≧ 80%) |
| citric acid salt of didecyldimethylammonium [Example 2] | 5 (Bacteriolytic power ≧ 80%) |
| cyclopentane tetracarboxylic acid salt of didecyldimethylammonium [Example 1] | 5 (Bacteriolytic power ≧ 80%) |
| cyclopentanetetracarboxylic acid salt of distearyldimethylammonium [Example 5] | 4 (60% ≦ Bacteriolytic power < 80%) |

test system: not given; assay: not given; conditions: 25° C.; cited from earlier work

| Molecule | pKa (pKa1, first stage dissociation constant) |
| --- | --- |
| O=C(O)CCCCCCCC(=O)O [azelaic acid] | 4.6 |
| CCCCCC(=O)O [caproic acid] | 4.9 |
| CCOP(=O)(O)O [ethylphosphoric acid] | 1.6 |
| O=C(O)[C@H](O)[C@@H](O)[C@H](O)[C@H](O)CO [gluconic acid] | 2.2 |
| N[C@@H](CCC(=O)O)C(=O)O [glutamic acid] | 2.3 |
| O=C(O)CCCC(=O)O [glutaric acid] | 4.3 |
| COP(=O)(O)O [methylphosphoric acid] | 1.5 |
| O=C(O)c1cc(C(=O)O)c(C(=O)O)cc1C(=O)O [pyromellitic acid] | 1.9 |

same assay, conditions: second stage dissociation; cited from earlier work

| Molecule | pKa2 |
| --- | --- |
| O=C(O)CCCCC(=O)O [adipic acid] | 5.3 |
